{
  "source": "patent US20100075907A1",
  "about": "“NEUROMEDIN U RECEPTOR AGONISTS AND USES THEREOF” (priority 2006, published 2010)",
  "assay_type_in_all_cases": "cell-based",
  "key": {"hNMUR2 [1]": {"target": "T1, hNMUR2 (Homo sapiens, UniProt Q9GZQ4)", "T1 sequence (Q9GZQ4 whole entry)": "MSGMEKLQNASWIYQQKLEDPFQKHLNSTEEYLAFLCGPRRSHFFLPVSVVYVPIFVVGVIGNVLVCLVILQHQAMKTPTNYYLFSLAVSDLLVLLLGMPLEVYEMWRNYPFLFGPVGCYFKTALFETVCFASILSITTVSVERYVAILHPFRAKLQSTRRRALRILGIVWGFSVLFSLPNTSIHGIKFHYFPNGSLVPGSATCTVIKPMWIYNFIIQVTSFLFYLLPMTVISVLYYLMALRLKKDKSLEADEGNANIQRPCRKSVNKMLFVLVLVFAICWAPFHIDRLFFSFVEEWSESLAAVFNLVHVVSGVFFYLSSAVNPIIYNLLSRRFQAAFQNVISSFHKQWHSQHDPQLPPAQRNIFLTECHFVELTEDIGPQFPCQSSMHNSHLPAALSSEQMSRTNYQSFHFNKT", "test": "FLIPR calcium mobilization assay, human NMUR2", "parameters": "expressed in transfected cells; host or cells: FLP-In CHO or HEK-293 FLP-In cells (pcDNA5); HEK-293/aeq17 lines (pcDNA3.1) were also made", "settings": "functional, human R2, relative to native hNMU responses"}, "Mouse NMUR1-CTG": {"target": "T2, Mouse NMUR1-CTG (Mus musculus, UniProt O55040)", "T2 sequence (O55040 1-428)": "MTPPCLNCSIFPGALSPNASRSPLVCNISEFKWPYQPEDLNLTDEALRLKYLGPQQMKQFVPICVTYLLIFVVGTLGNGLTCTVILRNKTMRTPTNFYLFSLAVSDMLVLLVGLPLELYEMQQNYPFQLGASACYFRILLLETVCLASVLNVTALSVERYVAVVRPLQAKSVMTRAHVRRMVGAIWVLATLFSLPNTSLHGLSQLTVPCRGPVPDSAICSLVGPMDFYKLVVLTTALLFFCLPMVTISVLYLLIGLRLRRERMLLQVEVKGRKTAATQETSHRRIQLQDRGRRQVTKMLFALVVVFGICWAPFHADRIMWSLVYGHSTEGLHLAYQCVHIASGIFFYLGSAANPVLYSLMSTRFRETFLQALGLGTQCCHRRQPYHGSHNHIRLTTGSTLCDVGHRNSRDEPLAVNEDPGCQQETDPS", "test": "FLIPR calcium mobilization assay, mouse NMUR1-CTG", "parameters": "expressed in transfected cells; host or cells: FLP-In CHO or HEK-293 FLP-In cells (pcDNA5)", "settings": "mouse R1-CTG", "description": "(§1) Human, mouse or rat cDNAs encoding NMUR1 or NMUR2 (as described in Howard et al. Nature 406: 70-74 (2000) were subcloned in pcDNA5 (Invitrogen) and transfected into FLP-In CHO cells and HEK-293 FLP-In cells purchased from Invitrogen (Carlsbad, Calif.) using lipofectamine (Invitrogen). The Flp-In system allows integration and expression of a particular gene of interest at a specific genomic location utilizing the Flp recombinase from yeast. The transfected cells were selected by growth in medium containing 200 μg/mL hygromycin (Invitrogen). Populations were frozen at early passage numbers, and these stocks were used for further studies. Stable clones that expressed the mRNAs were identified functionally by FLIPR as well as by RT-PCR. […] Two different rodent NMUR1 cell lines were thus generated: one with the codon as predicted from the genomic databases and another cell line with an engineered methionine (ATG) as the start codon. Additionally, stable cell lines expressing the human receptors were generated in HEK-293/aeq17 cells which stably express the aequorin gene under the CMV promoter. The human NMUR2 cDNA was cloned into pcDNA3.1 and human NMUR1 was subcloned into pIRES-puro (Clontech, Mountain View, Calif.), after transfection cells were selected in media containing G418 and either hygromycin (NMUR2) or puromycin (NMUR1).\n(§2) The NMU receptors signal primarily through Gαq/11 proteins; therefore calcium mobilization assays can be utilized for functional activity.\n(§3) Stable cell lines expressing human and or rodent NMUR1 or human NMUR2 receptors were plated at a density of 12,000 cells per well overnight on poly-lysine coated 384-well black-walled plates. The following day, the media was removed from the plates and the cells were subsequently loaded with Fluo-3 (Molecular Probes), a calcium sensitive dye, diluted in FLIPR buffer (1× Hank's buffered saline containing 20 mM HEPES, 0.1% BSA, 2.5 mM probenecid (Sigma) and 1.6 mM TR40). All reagents are from Invitrogen unless otherwise noted. Peptide stocks were resuspended in DMSO at a stock concentration of 2 mM and diluted in FLIPR buffer on the day of the experiment to a 4 μM working stock solution.\n(§4) After a 90 minute incubation at room-temperature, cell plates were loaded onto a FLIPR (Molecular Devices) to monitor cellular fluorescence (excitation=488 nm; emission=540 nm) before and after compound/peptide addition. Eight to twelve point dose responses were tested on NMUR-expressing cell lines using FLIPR with 1 μM peptide as the highest dose. The response after peptide addition was taken as the maximum fluorescence units minus the fluorescence immediately prior to stimulation for each well. EC50 values were calculated using GraphPad Prism (San Diego, Calif.) software.\nIn vitro responses of Neuromedin U receptor agonists (NMU1 to NMU25) in the FLIPR assay for human (Table 3), mouse (Table 4) and rat (Table 5) NMUR1 and NMUR2. EC50s are reported in nM values. Percent activity refers to the maximum response at 1 μM compared to the hNMU-25 response at the same concentration. NT=not tested."}, "hNMUR2 [2]": {"target": "T1, hNMUR2", "test": "In vitro functional assay, HEK-hR2 cells", "parameters": "expressed in transfected cells; host or cells: FLP-In CHO or HEK-293 FLP-In cells (pcDNA5); HEK-293/aeq17 lines (pcDNA3.1) were also made; % Activity: concentration or dose not given beside the values", "settings": "Table 8, HEK-hR2, functional", "description": "as §1, §2, §3, §4\nIn addition to FLIPR, NMU receptor function can also be evaluated using an aequorin assay. Stable cell lines expressing the aequorin jelly fish gene can be used to report the activation of GPCRs by monitoring intracellular calcium mobilization. The objective is to identify compounds which specifically stimulate aequorin bioluminescence. Calcium-dependent luminescence is generated by the treatment of cells with the coelenterate luciferin, coelenterazine. Briefly, confluent monolayers of HEK-293/aeq 17 cells expressing hNMUR1 or hNMUR2 are “charged” with coelenterazine (Molecular Probes, Carlsbad, Calif.). Confluent T75 flasks are rinsed with media containing 300 μM glutathione and 0.1% FBS. Cells are incubated at 37° C. for one hour in 8 mL media, 0.1% FBS, 300 μM glutathione, and 20 μM coelenterazine. T75 flasks are subsequently rinsed with 6 mL ECB buffer (140 mM NaCl, 20 mM KCl, 20 mM HEPES, 5 mM glucose, 1 mM MgCl, 1 mM CaCl2, 0.1 mg/mL BSA, PH 7.3-7.4). Cells are removed from the flask in ECB buffer, pelleted, and resuspended at a density of 2×10^5 cells/mL. Agonists are added to the cells and activity is determined using a luminometer."}},
  "note": "Non-standard residues stand in square brackets, D forms with d. Residues, ends and D or L forms follow the SMILES beside them.",
  "data": [
    {"smiles": "CC(C)C[C@@H](NC(=O)[C@H](Cc1ccccc1)NC(=O)[C@H](Cc1ccc(O)cc1)NC(=O)CNC(=O)[C@H](CCCNC(=N)N)NC(=O)[C@H](CO)NC(=O)[C@H](CCC(N)=O)NC(=O)[C@H](CO)NC(=O)[C@H](C)NC(=O)[C@H](Cc1ccccc1)NC(=O)[C@@H]1CCCN1C(=O)[C@H](CO)NC(=O)[C@H](CCC(N)=O)NC(=O)[C@H](Cc1ccccc1)NC(=O)[C@H](CCC(=O)O)NC(=O)[C@H](CCC(=O)O)NC(=O)[C@H](CC(=O)O)NC(=O)[C@@H](NC(=O)[C@H](CCCNC(=N)N)NC(=O)[C@@H](N)Cc1ccccc1)C(C)C)C(=O)N[C@@H](Cc1c[nH]c2ccccc12)C(=O)N[C@@H](CCCNC(=N)N)C(=O)N1CCC[C@H]1C(=O)N[C@@H](CCCNC(=N)N)C(=O)N[C@@H](CC(N)=O)C(N)=O", "note": "[Agonist H] (H-FRVDEEFQSPFASQSRGYF[dL]WRPRN-NH2; N-terminus assumed)", "values": [
      {"measurement": "% Activity", "setting": "hNMUR2 [1]", "value": 0, "unit": "%"},
      {"measurement": "IC50", "setting": "Mouse NMUR1-CTG; functional data", "value": 0.066, "unit": "µM"},
      {"measurement": "% Activity", "setting": "Mouse NMUR1-CTG; functional, relative to native hNMU responses", "value": 77, "unit": "%"},
      {"measurement": "% Activity", "setting": "hNMUR2 [2]", "value": 0, "unit": "%"},
      {"measurement": "IC50", "setting": "hNMUR2 [2]", "value": "> 1", "unit": "µM"}
    ]}
  ]
}
